Data on 1 molecule can be found in US9790537B2, “Quinone-masked probes as labeling reagents for cell uptake measurements” (PROMEGA CORPORATION, priority 2014, dated 2017).

In one data set the target is OATP1B1*1a (Homo sapiens, UniProt Q9Y6L6). The experiment in a line: Cell-based uptake transporter assay, TransportoCells OATP1B1*1a, luminescence. The following applies: various concentrations, 30 min 37° C.; FIG. 13. On the procedure:
(§1) Stock solutions of each compound were prepared as 10 mM in methanol. Corning TransportoCells OATP1B1*1a, OATP1B3, and Control Cells were used as cell model for cell-based uptake transporter assay. Cells were cultured according to manufacturer's recommendations. Briefly, cells were thawed from liquid nitrogen storage and cultured in Dulbecco's Modified Eagle's medium supplemented with fetal bovine serum (FBS), MEM non-essential amino acid, and sodium butyrate. Cells were then plated in Corning 96-well, poly-D-Lysine white/clear plate at 100,000 cells/well in 100 μl medium and incubated for 24 hours at 37° C. with 5% CO2.
(§2) The uptake transporter assay was carried out by adding 100 μl of Hank's balanced salt solution containing 10 μM of one of the compounds to all the cells and incubated at 37° C. for 30 minutes. […] After a 20 minute incubation at room temperature (20°-25° C.), luminescence was detected on a GloMax® luminometer. […]
(§3) The uptake transporter assay was carried out by adding 100 μl of Hank's balanced salt solution containing various concentrations (See FIG. 13) of PBI-5651 to all the cells and incubated at 37° C. for 30 minutes. […] After a 20 minute incubation at room temperature (20°-25° C.), luminescence was detected on a GloMax® luminometer.

The target in another data set is OATP1B3 (Homo sapiens, UniProt Q9NPD5). Description: Cell-based uptake transporter assay, TransportoCells OATP1B3, luminescence. Conditions: various concentrations, 30 min 37° C.; FIG. 13. On the procedure:
as §1, §2, §3

Molecules are shown by their SMILES.

OATP1B3, sequence (Q9NPD5 whole entry): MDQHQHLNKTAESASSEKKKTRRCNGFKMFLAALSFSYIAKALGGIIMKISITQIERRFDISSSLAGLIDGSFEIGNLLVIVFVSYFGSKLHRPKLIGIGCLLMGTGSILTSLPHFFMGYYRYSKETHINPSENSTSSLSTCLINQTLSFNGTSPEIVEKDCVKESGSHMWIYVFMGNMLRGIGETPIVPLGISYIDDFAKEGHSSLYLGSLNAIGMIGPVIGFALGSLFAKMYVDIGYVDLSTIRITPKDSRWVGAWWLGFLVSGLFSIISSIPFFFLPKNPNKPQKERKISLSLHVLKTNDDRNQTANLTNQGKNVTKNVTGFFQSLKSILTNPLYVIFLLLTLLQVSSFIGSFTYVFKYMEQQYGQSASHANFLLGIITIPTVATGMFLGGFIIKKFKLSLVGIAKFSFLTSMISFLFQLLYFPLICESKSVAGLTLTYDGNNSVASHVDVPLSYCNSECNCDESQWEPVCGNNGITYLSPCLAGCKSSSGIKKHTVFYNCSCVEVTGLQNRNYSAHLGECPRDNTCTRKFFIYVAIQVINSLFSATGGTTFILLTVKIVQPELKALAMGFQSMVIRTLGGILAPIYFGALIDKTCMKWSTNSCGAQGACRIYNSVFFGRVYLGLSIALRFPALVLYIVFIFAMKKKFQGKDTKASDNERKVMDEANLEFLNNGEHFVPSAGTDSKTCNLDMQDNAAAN

In the case of `CC1=C(C)C(=O)C(C(C)(C)CC(=O)N(C)CCN(CCOCCOCCC(=O)NCCCCC(NC(=O)CC[C@@H](C)[C@H]2CC[C@H]3[C@@H]4[C@@H](O)C[C@@H]5C[C@H](O)CC[C@]5(C)[C@H]4CC[C@]23C)C(=O)O)C(=O)Oc2ccc3nc(C4=NC(C(=O)O)CS4)sc3c2)=C(C)C1=O` (stereo partly drawn) [PBI-5651, 2-(6-((((20R)-15-carboxy-20-((3R,5S,7S,8R,9S,10S,13R,14S,17R)-3,7-dihydroxy-10,13-dimethylhexadecahydro-1H-cyclopenta[a]phenanthren-17-yl)-9,17-dioxo-3,6-dioxa-10,16-diazahenicosyl)(2-(N,3-dimethyl-3-(2,4,5-trimethyl-3,6-dioxocyclohexa-1,4-dien-1-yl)butanamido)ethyl)carbamoyl)oxy)benzo[d]thiazol-2-yl)-4,5-dihydrothiazole-4-carboxylic acid], the “response of luminescence (RLU) to compound concentration” value at OATP1B1*1a and on OATP1B3 was “dynamic response of luminescence” each time.
